Measured values from patent publication US4072675A, “N-phenyl amidines” (Mead Johnson & Company, priority 1975, dated 1978).
Converted amounts (≈) assume the structure as drawn. Where a name gives a salt, the structure may show the parent alone. Read-outs that look alike come from different tables or passages of the source.

Assays:
[1] = Diuretic test in rats according to the Lipschitz method (urine volume and electrolyte excretion vs urea control); format: in vivo; details: rat
Procedure: The compounds of the present invention are evaluated as diuretics according to the method of W. L. Lipschitz, et al., J. Pharmacol. Expt. Therap., 79, 97 (1943). In this method, groups of 8 rats are fasted 18 hours prior to the experiment. A control group is hydrated orally with 25 ml. per kilogram of body weight of isotonic saline solution which is also the vehicle used for dosing the test compound. One control group received a dose of 960 mg./kg. of body weight of urea. Animals of other groups are tested with various doses of the test compound. Immediately after treatment, the animals are placed in metabolism cages (two rats of the same group per cage) and maintained without food or water for 5 hours. The volume of urine excreted by each pair is determined after this period and the pooled urine is analyzed for sodium, potassium, and chloride ions. […] In this test, the N-phenyl amidines of Formula I were orally administered in doses ranging from 2.7 to 25 mg./kg. of body weight.
One of the disadvantages associated with diuretics such as the thiazides is believed to stem largely from increased excretion of potassium ion concomitant with water elimination. […] As stated hereinabove,excessive excretion of potassium ion may cause an electrolyte imbalance resulting in adverse side effects.

[2] = tested on: aconitine induced atrial arrhythmia; assay: In vivo dog arrhythmia test (aconitine induced atrial arrhythmia); details: Canis lupus familiaris, iv, read-out: effective dose restoring normal cardiac rhythm
Description: In the in vivo dog arrhythmia test, the chest of an anesthetized dog is opened in the mid-line and the right and left atrial appendages exposed to small slits in the pericardium. Bypolar recording electrodes are affixed to atrial surfaces and a 4 × 4 mm. piece of clean cloth is fixed to surface of the right auricular appendage. Control recordings are made of various heart functions including femoral arterial blood pressure and right and left atrail electrograms. Atrial arrhythmia is then induced by placing 3-5 drops of a solution of aconitine on the cloth which is fixed to the right atrium. An irregular, rapid atrial rate is produced within 1 minute. Throughout the test, fresh aconitine (2-3 drops) is placed on the cloth at 10 minute intervals. The test compound is administered intravenously 5 minutes after the initial establishment of the arrhythmia and infusion continued at a slow rate until an effective dose which re-establishes normal rhythm of the heart is obtained.
The Formula Ia N-phenylamidines are effective both orally and parenterally as antiarrhythmic agents. For instance, intravenous administration of about 2.5 mg./kg. of 3,4,5,6-tetrahydro-7-[(N-phenyl)-phenethylamino]-2H-azepine or 4,5,6,7,8,9-hexahydro-2-(N-phenylphenethyl-amino)-3H-azonine effectively restores normal cardiac rhythm to induced arrhythmia in the dog.

[3] = tested on: chloroform induced arrhythmia; assay: Chloroform induced arrhythmia in the mouse; format: in vivo; details: ip, intraperitoneal, read-out: ED50 preventing chloroform induced arrhythmia
Description: Another in vivo test indicative of antiarrhythmic activity is chloroform induced arrhythmia in the mouse.

rabbit ileum = assay: In vitro smooth muscle relaxant test, isolated rabbit ileum with spasmogen; format: cell-based; details: from EC50 vs spasmogen, papaverine = reference
Procedure: Smooth muscle relaxant activity of the compounds of the present invention can be measured in standard in vitro and in vivo pharmacological tests. One such in vitro test is carried out essentially as follows. A segment of rabbit ileum is suspended and oxygenated in Tyrode's solution and affixed to a tension transducer for electronic recording of isometric contractions. After controlled responses to a standard dose of a spasmogen such as barium chloride (0.25 mg./ml.), acetyl choline chloride (1.0 mcg./ml.), etc., are established, the test compound is added and the response to the spasmogen, in the presence of the test agent, again determined. Test compound effect is measured as the percentage reduction in the response to the spasmogen, in the presence of the test compound, from the mean control response. A minimum of four trials is obtained with each of two to five different concentrations of the test compound. The data are expressed in log dose response curves and estimates made therefrom of the EC50 (concentration causing 50% reduction in response of the tissue to the spasmogen). In general, the effect of compounds identified by Formula I on the rabbit ileum is similar to papaverine, a well-known smooth muscle relaxant. […]

intestinal smooth muscle = assay: In vivo intestinal smooth muscle relaxation in anesthetized cat (intraduodenal pressure)
Procedure: Intestinal smooth muscle relaxant activity can also be measured in an in vivo cat preparation. In this test, a balloon is inserted through a small incision in the stomach of an anesthetized cat to a point about 10 cm. down the duodenum and intralumenal intestinal pressure changes recorded. A solution or suspension of the test agent is administered intraduodenally about 2 cm. beyond the balloon placed for recording intraduodenal pressure in volume doses of 1 ml./kg. body weight. This means of administration mimics oral administration. Various doses of the test agent are administered and an inhibitory dose which supresses intestinal […] by 50% of maximum is determined. This value is designated the ID50. N-benzyl-N'-tert-butyl-N-phenylforamidine hydrochloride compared to papaverine is about 1.5 times as potent in this test.

rabbit atrium = assay: Isolated rabbit atrium test (refractory period); format: cell-based; details: Oryctolagus cuniculus, read-out: EC50 (50% of maximal increase in refractory period)
Procedure: In the rabbit atrium test, the left atrium is placed in Chenoweth's solution warmed to 30° C. and irrigated with 95% oxygen:5% carbon dioxide. The lower end of the atrium is attached to a small hook fixed in the bath and the upper end is connected to a transducer to record contractile activity. The atrium is electrically stimulated at a basic rate of 30 per minute employing square wave pulses of 10 millisecond duration at 1.2-1.5 times threshold voltage. The test compound is introduced into the bath and the test repeated after a 5 minute interval. A dose response relationship is obtained by additional doses of the test compound. Potency of a test agent can be expressed as the effective concentration which produces 50% of the maximal increase in the measured refractory period of the steady state atrium. This value is designated the EC50.

[4] = tested on: guinea pig isolated tracheal spiral; assay: In vitro guinea pig isolated tracheal spiral test; format: cell-based
Procedure: Another in vitro test measuring the smooth muscle relaxant properties of the compounds of the present invention employs the guinea pig isolated tracheal spiral and is carried out essentially as described by Lish, et al., J. Pharmacol. Exp. Therap., 129, 191 (1960). As illustrative of the activity of the compounds of the present invention in this test there can be mentioned 3-[(N-1-pyrrolin-2-yl-p-anisidino)methyl]indole hydrochloride which is about 1.7 times as potent as aminophylline.

[5] = tested on: histamine challenged guinea pig; assay: Histamine challenged guinea pig aerosol test (bronchodilation); format: in vivo; details: oral
Description: As a bronchodilating agent, 3-[(N-1-pyrrolin-2-yl-p-anisidino)methyl]indolehydrochloride is of particular interest. In the histamine challenged guinea pig aerosol test, refer to Turner, Screening Methods In Pharmacology, page 214 (1965) (Academic Press, New York), this compound is about 1.4 times as potent as aminophylline when administered orally.

[6] = rabbit left atrium, 30° C., Chenoweth's solution

c1ccc(N=C2CCCN2)cc1 [2-phenyliminopyrrolidine, reference compound]
diuretic activity (in words) ([1]; Lipschitz method): substantially inactive as a diuretic agent

c1ccc(CCN(C2=NCCCCC2)c2ccccc2)cc1 [3,4,5,6-tetrahydro-7-[(N-phenyl)phenethylamino]-2H-azepine]
minimal effective dose [2]: ~2.5 mg/kg
ED50 [3]: 11.5 mg/kg

c1ccc(CCN(C2=NCCCCCCC2)c2ccccc2)cc1 [4,5,6,7,8,9-hexahydro-2-(N-phenylphenethylamino)-3H-azonine]
minimal effective dose [2]: ~2.5 mg/kg

CC(C)(C)N=CN(CCc1ccccc1)c1ccccc1.Cl [Example 1, N'-tert-Butyl-N-phenethyl-N-phenylformamidine hydrochloride]
smooth muscle relaxant potency relative to papaverine (times as potent) (rabbit ileum): 5

CC(C)(C)N=CN(Cc1ccccc1)c1ccccc1.Cl [Example 2, N-Benzyl-N'-tert.-butyl-N-phenylformamidine hydrochloride]
potency relative to papaverine (times as potent, ID50) (intestinal smooth muscle): about 1.5

CC1CCC(N(Cc2ccccc2)c2ccccc2)=N1.Cl (stereo not shown) [Example 5, 5-Methyl-2-(N-phenylbenzylamino)-1-pyrroline hydrochloride]
ratio of sodium ion excretion to potassium ion excretion ([1]; oral, 6.25 mg./kg.): 2.7
ratio for potassium ion excretion vs urea control group ([1]; oral, 6.25 mg./kg., 5 hours): 0.75
ratio for sodium ion excretion vs urea control group ([1]; oral, 6.25 mg./kg., 5 hours): 2.03
ratio for volume excretion vs urea control group ([1]; oral, 6.25 mg./kg., 5 hours): 2.32

Cl.c1ccc(CCN(C2=NCCCCC2)c2ccccc2)cc1 [Example 10, 3,4,5,6-Tetrahydro-7-[(N-phenyl)phenethylamino]-2H-azepine hydrochloride]
EC50 (rabbit atrium; [6]): 7.2 µg/mL

COc1ccc(N(Cc2c[nH]c3ccccc23)C2=NCCC2)cc1 [Example 34, 3-[N-1-Pyrrolin-2-yl-p-anisidino)methyl]indole hydrochloride]
potency relative to aminophylline (times as potent) [4]: about 1.7
bronchodilating potency relative to aminophylline (times as potent) [5]: about 1.4

CC1CCC(N(Cc2c[nH]c3ccccc23)c2ccccc2)=N1.Cl (stereo not shown) [Example 37, 3-[[N-(5-methyl-1-pyrrolin-2yl)anilino]methyl]indole hydrochloride]
smooth muscle relaxant potency relative to papaverine (times as potent) (rabbit ileum): 1.4

c1ccc(CCN(C2=NCCCCCC2)c2ccccc2)cc1 [Example 60, 3,4,5,6,7,8-Hexahydro-2-(N-phenylphenethylamino)azocine hydrochloride hemihydrate]
EC50 (rabbit atrium; [6]): 2.5 µg/mL

Cl.c1ccc(CCN(C2=NCCCCCCC2)c2ccccc2)cc1 [Example 61, 4,5,6,7,8,9-Hexahydro-2-(N-phenylphenethylamino)-3H-azonine Hydrochloride]
EC50 (rabbit atrium; [6]): 1.9 µg/mL

NS(=O)(=O)c1cc2c(cc1Cl)NCNS2(=O)=O [Hydrochlorothiazide, reference compound]
ratio of sodium ion excretion to potassium ion excretion ([1]; oral, 6.25 mg./kg.): 1.65

C=C[C@H]1C[N@@]2CC[C@H]1C[C@@H]2[C@@H](O)c1ccnc2ccc(OC)cc12 [Quinidine, reference compound]
minimal effective dose [2]: 6 mg/kg
EC50 (rabbit atrium): 18 µg/mL (≈ 55.5 µM)
